Results taken from patent US9867833B2, “Serine/threonine kinase inhibitors” (GENENTECH, INC., priority 2013, dated 2018).

The molecules below were run against human ERK-2 (Mitogen Activated Kinase 1) (Homo sapiens (Human), UniProt P28482) (assay: ERK-2 Enzymatic Assay). Details: human ERK-2 enzyme 5 nM, 25 μM ATP, S/T17 peptide substrate; isomer = configuration of CR2R3.
Chain of human ERK-2 (Mitogen Activated Kinase 1) (P28482 8-360): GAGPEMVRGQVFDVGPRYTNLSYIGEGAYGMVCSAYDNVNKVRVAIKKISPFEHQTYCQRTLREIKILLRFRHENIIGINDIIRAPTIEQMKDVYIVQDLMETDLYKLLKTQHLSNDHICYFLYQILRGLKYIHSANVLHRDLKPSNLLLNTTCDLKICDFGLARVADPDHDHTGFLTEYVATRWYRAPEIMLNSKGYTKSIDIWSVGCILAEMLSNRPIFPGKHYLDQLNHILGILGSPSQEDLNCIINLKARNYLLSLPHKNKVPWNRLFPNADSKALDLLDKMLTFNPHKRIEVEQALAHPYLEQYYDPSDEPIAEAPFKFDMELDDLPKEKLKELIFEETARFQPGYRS
Assay type: biochemical
Description: Compounds were tested in an enzymatic assay using human ERK-2 (Mitogen Activated Kinase 1), recombinantly expressed as an n-terminal 6-His fusion protein in E. coli and corresponding to aa 8-360. […] Test compounds were diluted in DMSO in 3-fold serial dilutions at 100× final concentrations. […] The data collected from each well was fit to a straight line, and the resulting rates were used to calculate percent of control. Percent of control was plotted against compound concentration, and IC50 values were determined using a four-parameter fit.
`Cn1nccc1Nc1cc(-c2cc3n4c(nnc4c2)[C@@H](Cc2ccccc2)CO3)ccn1` [(R) I-38, 4-(3-benzyl-3,4-dihydro-5-oxa-1,2,2a^1-triazaacenaphthylen-7-yl)-N-(1-methyl-1H-pyrazol-5-yl)pyridin-2-amine] was tested, and the IC50 was 0.02 nM.
`CN1C(=O)C[C@@H](Cc2ccc(Cl)cc2)c2nnc3cc(-c4ccnc(Nc5ccnn5C)c4)cc1n23` [(R) I-40, 9-(4-chlorobenzyl)-6-methyl-4-(2-((1-methyl-1H-pyrazol-5-yl)amino)pyridin-4-yl)-8,9-dihydro-1,2,2a^1,6-tetraazabenzo[cd]azulen-7(6H)-one] gave an IC50 of 1.35 nM.
In the case of `Cn1nccc1Nc1nccc(-c2cc3n4c(nnc4c2)[C@@H](Cn2cc(Cl)cn2)CCO3)n1` [(R) I-42, (R)-4-(9-((4-chloro-1H-pyrazol-1-yl)methyl)-8,9-dihydro-7H-6-oxa-1,2,2a^1-triazabenzo[cd]azulen-4-yl)-N-(1-methyl-1H-pyrazol-5-yl)pyrimidin-2-amine], the IC50 is reported as 0.079 nM.
`COc1ncccc1C[C@@H]1CN(C)c2cc(-c3ccnc(Nc4ccnn4C)n3)cc3nnc1n23` [(R) I-43, 4-(3-((2-methoxypyridin-3-yl)methyl)-5-methyl-4,5-dihydro-3H-1,2,2a^1,5-tetraazaacenaphthylen-7-yl)-N-(1-methyl-1H-pyrazol-5-yl)pyrimidin-2-amine] showed an IC50 of 120 nM.
In the case of `Cn1nccc1Nc1nccc(-c2cc3n4c(nnc4c2)[C@@H](Cc2ccc(F)cc2)CO3)n1` [(R) I-44, 4-(3-(4-fluorobenzyl)-3,4-dihydro-5-oxa-1,2,2a^1-triazaacenaphthylen-7-yl)-N-(1-methyl-1H-pyrazol-5-yl)pyrimidin-2-amine], the IC50 is reported as < 0.02 nM.
`CC(C)C[C@H]1COc2cc(-c3ccnc(Nc4ccnn4C)n3)cc3nnc1n23` [(R) I-45, 4-(3-isobutyl-3,4-dihydro-5-oxa-1,2,2a^1-triazaacenaphthylen-7-yl)-N-(1-methyl-1H-pyrazol-5-yl)pyrimidin-2-amine] was tested, and the IC50 was < 0.02 nM.
With `COc1ccc(C[C@H]2COc3cc(-c4ccnc(Nc5ccnn5C)n4)cc4nnc2n34)cc1F` [(R) I-46, 4-(3-(3-fluoro-4-methoxybenzyl)-3,4-dihydro-5-oxa-1,2,2a^1-triazaacenaphthylen-7-yl)-N-(1-methyl-1H-pyrazol-5-yl)pyrimidin-2-amine] the IC50 was < 0.02 nM.
With `Cn1nccc1Nc1cc(-c2cc3n4c(nnc4c2)[C@@H](Cn2cc(Cl)cn2)CCO3)ccn1` [(R) I-47, 4-(9-((4-chloro-1H-pyrazol-1-yl)methyl)-8,9-dihydro-7H-6-oxa-1,2,2a^1-triazabenzo[cd]azulen-4-yl)-N-(1-methyl-1H-pyrazol-5-yl)pyridin-2-amine] the IC50 was < 0.02 nM.
`Cn1nccc1Nc1cc(-c2cc3n4c(nnc4c2)[C@@H](Cc2ccc(Cl)cc2)CO3)ccn1` [(R) I-48, 4-(3-(4-chlorobenzyl)-3,4-dihydro-5-oxa-1,2,2a^1-triazaacenaphthylen-7-yl)-N-(1-methyl-1H-pyrazol-5-yl)pyridin-2-amine] was tested, and the IC50 was < 0.02 nM.
`COc1ccc(C[C@H]2COc3cc(-c4ccnc(Nc5ccnn5C)n4)cc4nnc2n34)cc1` [(R) I-50, 4-(3-(4-methoxybenzyl)-3,4-dihydro-5-oxa-1,2,2a^1-triazaacenaphthylen-7-yl)-N-(1-methyl-1H-pyrazol-5-yl)pyrimidin-2-amine] was tested, and the IC50 was 0.02 nM.
For `Cn1nccc1Nc1cc(-c2cc3n4c(nnc4c2)[C@@H](Cc2ccc(F)c(F)c2)CO3)ccn1` [(R) I-54, 4-(3-(3,4-difluorobenzyl)-3,4-dihydro-5-oxa-1,2,2a^1-triazaacenaphthylen-7-yl)-N-(1-methyl-1H-pyrazol-5-yl)pyridin-2-amine], the IC50 was 0.03 nM.
In the case of `Cn1nccc1Nc1nccc(-c2cc3n4c(nnc4c2)[C@@H](Cn2cc(C4CC4)cn2)CCO3)n1` [(R) I-56, 4-(9-((4-cyclopropyl-1H-pyrazol-1-yl)methyl)-8,9-dihydro-7H-6-oxa-1,2,2a^1-triazabenzo[cd]azulen-4-yl)-N-(1-methyl-1H-pyrazol-5-yl)pyrimidin-2-amine], the IC50 is reported as < 0.02 nM.
With `Cn1nccc1Nc1nccc(-c2cc3n4c(nnc4c2)[C@H](Cc2ccc(F)cc2)CCO3)n1` [(R) I-58, 4-(9-(4-fluorobenzyl)-8,9-dihydro-7H-6-oxa-1,2,2a^1-triazabenzo[cd]azulen-4-yl)-N-(1-methyl-1H-pyrazol-5-yl)pyrimidin-2-amine] the IC50 was < 0.02 nM.
`COc1ccc(C[C@@H]2CC(=O)N(C)c3cc(-c4ccnc(Nc5ccnn5C)n4)cc4nnc2n34)cc1` [(R) I-62, 9-(4-methoxybenzyl)-6-methyl-4-(2-((1-methyl-1H-pyrazol-5-yl)amino)pyrimidin-4-yl)-8,9-dihydro-1,2,2a^1,6-tetraazabenzo[cd]azulen-7(6H)-one] was tested, and the IC50 was < 0.02 nM.
With `CCC[C@@H]1CC(=O)N(C)c2cc(-c3ccnc(Nc4ccnn4C)n3)cc3nnc1n23` [(R) I-64, 6-methyl-4-(2-((1-methyl-1H-pyrazol-5-yl)amino)pyrimidin-4-yl)-9-propyl-8,9-dihydro-1,2,2a^1,6-tetraazabenzo[cd]azulen-7(6H)-one] the IC50 was 183 nM.
In the case of `CN1C(=O)C[C@H](C2CC2)c2nnc3cc(-c4ccnc(Nc5ccnn5C)n4)cc1n23` [(R) I-65, 9-cyclopropyl-6-methyl-4-(2-((1-methyl-1H-pyrazol-5-yl)amino)pyrimidin-4-yl)-8,9-dihydro-1,2,2a^1,6-tetraazabenzo[cd]azulen-7(6H)-one], the IC50 is reported as 0.66 nM.
With `Cn1nccc1Nc1nccc(-c2cc3n4c(nnc4c2)[C@H](Oc2ccc(F)cc2)CCO3)n1` [(R) I-66, 4-(9-(4-fluorophenoxy)-8,9-dihydro-7H-6-oxa-1,2,2a^1-triazabenzo[cd]azulen-4-yl)-N-(1-methyl-1H-pyrazol-5-yl)pyrimidin-2-amine] the IC50 was 2.95 nM.
Molecule `CN1C(=O)C[C@H](CC(F)(F)F)c2nnc3cc(-c4ccnc(Nc5ccnn5C)n4)cc1n23` [(R) I-71, 6-methyl-4-(2-((1-methyl-1H-pyrazol-5-yl)amino)pyrimidin-4-yl)-9-(2,2,2-trifluoroethyl)-8,9-dihydro-1,2,2a^1,6-tetraazabenzo[cd]azulen-7(6H)-one] has an IC50 of 0.655 nM.
With `COc1ccc(C[C@@H]2CC(=O)N(C)c3cc(-c4ccnc(Nc5ccnn5C)c4)cc4nnc2n34)c(F)c1` [(R) I-74, 9-(2-fluoro-4-methoxybenzyl)-6-methyl-4-(2-((1-methyl-1H-pyrazol-5-yl)amino)pyridin-4-yl)-8,9-dihydro-1,2,2a^1,6-tetraazabenzo[cd]azulen-7(6H)-one] the IC50 was < 0.02 nM.
Work on `CC(C)C[C@@H]1CC(=O)N(C)c2cc(-c3ccnc(Nc4ccnn4C)c3)cc3nnc1n23` [(R) I-75, 9-isobutyl-6-methyl-4-(2-((1-methyl-1H-pyrazol-5-yl)amino)pyridin-4-yl)-8,9-dihydro-1,2,2a^1,6-tetraazabenzo[cd]azulen-7(6H)-one] yielded an IC50 of 3.22 nM.
In the case of `Cn1nccc1Nc1nccc(-c2cc3n4c(nnc4c2)[C@H](Oc2cncc(Cl)c2)CCO3)n1` [(R) I-77, 4-(9-((5-chloropyridin-3-yl)oxy)-8,9-dihydro-7H-6-oxa-1,2,2a^1-triazabenzo[cd]azulen-4-yl)-N-(1-methyl-1H-pyrazol-5-yl)pyrimidin-2-amine], the IC50 is reported as 0.311 nM.
In the case of `Cn1nccc1Nc1cc(-c2cc3n4c(nnc4c2)[C@H](Oc2cncc(Cl)c2)CCO3)ccn1` [(R) I-78, 4-(9-((5-chloropyridin-3-yl)oxy)-8,9-dihydro-7H-6-oxa-1,2,2a^1-triazabenzo[cd]azulen-4-yl)-N-(1-methyl-1H-pyrazol-5-yl)pyridin-2-amine], the IC50 is reported as 4.61 nM.
Work on `Cn1nccc1Nc1nccc(-c2cc3n4c(nnc4c2)[C@@H](Cc2ccc(F)c(Cl)c2)CO3)n1` [(R) I-82, 4-(3-(3-chloro-4-fluorobenzyl)-3,4-dihydro-5-oxa-1,2,2a^1-triazaacenaphthylen-7-yl)-N-(1-methyl-1H-pyrazol-5-yl)pyrimidin-2-amine] yielded an IC50 of 0.6 nM.
Work on `CN1C(=O)C[C@@H](Cc2ccc(Cl)cn2)c2nnc3cc(-c4ccnc(Nc5ccnn5C)n4)cc1n23` [(R) I-84, 9-((5-chloropyridin-2-yl)methyl)-6-methyl-4-(2-((1-methyl-1H-pyrazol-5-yl)amino)pyrimidin-4-yl)-8,9-dihydro-1,2,2a^1,6-tetraazabenzo[cd]azulen-7(6H)-one] yielded an IC50 of 0.102 nM.
In the case of `COc1ccc(C[C@@H]2CC(=O)N(C)c3cc(-c4ccnc(Nc5ccnn5C)n4)cc4nnc2n34)c(F)c1` [(R) I-85, 9-(2-fluoro-4-methoxybenzyl)-6-methyl-4-(2-((1-methyl-1H-pyrazol-5-yl)amino)pyrimidin-4-yl)-8,9-dihydro-1,2,2a^1,6-tetraazabenzo[cd]azulen-7(6H)-one], the IC50 is reported as < 0.02 nM.
`CC(C)[C@H]1CC(=O)N(C)c2cc(-c3ccnc(Nc4ccnn4C)c3)cc3nnc1n23` [(R) I-87, 9-isopropyl-6-methyl-4-(2-((1-methyl-1H-pyrazol-5-yl)amino)pyridin-4-yl)-8,9-dihydro-1,2,2a^1,6-tetraazabenzo[cd]azulen-7(6H)-one] gave an IC50 of 6.94 nM.
In the case of `Cn1nccc1Nc1nccc(-c2cc3n4c(nnc4c2)[C@@H](Cc2cccc(Cl)c2)CO3)n1` [(R) I-88, 4-(3-(3-chlorobenzyl)-3,4-dihydro-5-oxa-1,2,2a^1-triazaacenaphthylen-7-yl)-N-(1-methyl-1H-pyrazol-5-yl)pyrimidin-2-amine], the IC50 is reported as < 0.02 nM.
With `Cn1nccc1Nc1cc(-c2cc3n4c(nnc4c2)[C@@H](Cn2cc(C(F)(F)F)cn2)CCO3)ccn1` [(R) I-89, N-(1-methyl-1H-pyrazol-5-yl)-4-(9-((4-(trifluoromethyl)-1H-pyrazol-1-yl)methyl)-8,9-dihydro-7H-6-oxa-1,2,2a^1-triazabenzo[cd]azulen-4-yl)pyridin-2-amine] the IC50 was < 0.02 nM.
Work on `Cn1nccc1Nc1nccc(-c2cc3n4c(nnc4c2)[C@H](Oc2ccccc2)CCO3)n1` [(R) I-90, N-(1-methyl-1H-pyrazol-5-yl)-4-(9-phenoxy-8,9-dihydro-7H-6-oxa-1,2,2a^1-triazabenzo[cd]azulen-4-yl)pyrimidin-2-amine] yielded an IC50 of 0.942 nM.
